# Reference: BindingDB's records for doi:10.1021/acs.jmedchem.9b00359 (Shandong University, 2019)
# pEC50: −log10 of the molar value.
# Assay: Inhibition of HIV1 reverse transcriptase p66/p51 K103N/Y181C mutant infected in human MT2 cells assessed as reduction in viral infection incubated for 5 days
row,SMILES,pEC50
1,C=CC(=O)N(C)c1cc(Oc2ccccc2OCCn2ccc(=O)[nH]c2=O)c(C)c2cc(C#N)ccc12,6.30
2,C=CC(=O)Nc1cc(Oc2ccccc2OCCn2ccc(=O)[nH]c2=O)c(C)c2cc(C#N)ccc12,< 4.92
3,Cc1c(Oc2ccccc2OCCn2ccc(=O)[nH]c2=O)cc(N(C)C(=O)CF)c2ccc(C#N)cc12,4.82
